Measured values reported in patent publication US20260144769A1, “4-PHENYLBUTYRATE RESTORED GABA UPTAKE AND REDUCED SEIZURES IN SLC6A1 VARIANT-MEDIATED DISORDERS” (Vanderbilt University, priority 2022, published 2026).

Legend:
Format in all cases: cell-based
GAT-1 = molecular target: T1, GAT-1 (Rattus norvegicus, UniProt P23978); assay: 3H GABA uptake, HEK cells transfected with GAT-1 cDNA with or without PBA (dual therapy)
T1 construct: EYFP (N); expressed in transfected cells; host or cells: HEK (HEK293T) cells
Procedure: In cell models, HEK293T cells were transfected with SLC6A1, SLC6A1(A288V) or SLC6A1(S295L) cDNAs. The live cells were then fluxed and evaluated for GABA uptake with a 3H radiolabeling GABA uptake assay. In order to evaluate gene expression and protein trafficking, total protein from cell lysates were subjected to SDS-PAGE and immunoblotted for GAT-1 and GFP. Gene expression was evaluated at a variety of gene therapy dosages.

GAT-1 L460R = GAT-1 L460R (Rattus norvegicus, UniProt P23978, L460R); assay: 3H GABA uptake, HEK293T, mutant cDNA alone ("homozygous"); design: The coding region of rGAT-1 was inserted into pEYFP-C1 (Clontech, Palo Alto, CA); expressed in transfected cells; host or cells: HEK293T cells; conditions: PBA 2 mM, 24 hrs
Procedure: (§1) GABA uptake activity was measured by the high-throughput 3H radio-labeling GABA uptake on a liquid scintillator with QuantaSmart. […] HEK293T cells were transfected with the wildtype or the mutant GAT-1^YFP cDNAs alone for 48 hr. […] HEK293T cells were transfected with the wildtype GAT-1^YFP alone or in mixture of the wildtype or the mutant cDNAs for 48 hr. In the mixed condition, the ratio of the wildtype GAT-1 with pcDNA or the mutant cDNAs are 1:1 with the total cDNA amount of 0.5 μg. […] Both wt and the mutant were normalized to its own DMSO treated conditions. 966 stands for the wildtype treated with CI-966 (50 μM) while 711 stands for NNC-711 (35 μM). (N=4-7 different transfections. In FIG. 4A and FIG. 4B, *P<0.05, **P<0.01, ***p<0.001 vs. wt 0. In FIG. C and FIG. 4D, *P<0.05, **P<0.01, ***p<0.001 vs. its own DMSO treated. In FIG. 4C, ns stands for no significance. One-way analysis of variance (ANOVA) and Newman-Keuls test. Values were expressed as mean±S.E.M.
(§2) The plasmid cDNA encoding enhanced yellow fluorescent protein (EYFP)-tagged rat GAT-1 has been previously described. […]
(§3) Briefly, cells were cultured in […] dishes for 3 days before the GABA uptake experiment in DMEM with 10% fetal bovine serum and 1% penicillin/streptomycin. […] Glacial acetic acid was added, and lysates were then determined on a liquid scintillator with QuantaSmart. […]

GAT-1 E16X = GAT-1 E16X (Rattus norvegicus, UniProt P23978); assay: as above; design: with only 15 amino acids left in the protein peptide; expressed in transfected cells; host or cells: HEK293T cells; conditions: PBA 2 mM, 24 hrs
Procedure: as §1, §2, §3

- GABA uptake, combined cDNA/PBA treatment vs. cDNA alone (GAT-1; 0.25 μg GAT-1 cDNA + 2 mM PBA vs. 0.5 μg GAT-1 cDNA alone): No significant difference
- GABA uptake normalized to its own DMSO treated condition (GAT-1 L460R): 1.14±0.07
- GABA uptake normalized to its own DMSO treated condition (GAT-1 E16X): 0.813±0.06
SMILES: O=C(O)CCCc1ccccc1 [PBA, 4-phenylbutyric acid]
- GABA uptake function, dual therapy vs. cDNA treatment alone (GAT-1; equal cDNA amount with PBA, variety of cDNA doses in HEK cells): greater GABA uptake function at all but one dose size
